{"source": "patent US20220087996A1", "about": "“Histone acetylase p300 inhibitor and use thereof” (HINOVA PHARMACEUTICALS INC., priority 2018, published 2022)", "key": {"histone acetylase p300": {"biological_target": "T1, histone acetylase p300 (Homo sapiens, UniProt Q09472)", "T1 construct": "purchased BPS", "T1 sequence (Q09472 whole entry)": "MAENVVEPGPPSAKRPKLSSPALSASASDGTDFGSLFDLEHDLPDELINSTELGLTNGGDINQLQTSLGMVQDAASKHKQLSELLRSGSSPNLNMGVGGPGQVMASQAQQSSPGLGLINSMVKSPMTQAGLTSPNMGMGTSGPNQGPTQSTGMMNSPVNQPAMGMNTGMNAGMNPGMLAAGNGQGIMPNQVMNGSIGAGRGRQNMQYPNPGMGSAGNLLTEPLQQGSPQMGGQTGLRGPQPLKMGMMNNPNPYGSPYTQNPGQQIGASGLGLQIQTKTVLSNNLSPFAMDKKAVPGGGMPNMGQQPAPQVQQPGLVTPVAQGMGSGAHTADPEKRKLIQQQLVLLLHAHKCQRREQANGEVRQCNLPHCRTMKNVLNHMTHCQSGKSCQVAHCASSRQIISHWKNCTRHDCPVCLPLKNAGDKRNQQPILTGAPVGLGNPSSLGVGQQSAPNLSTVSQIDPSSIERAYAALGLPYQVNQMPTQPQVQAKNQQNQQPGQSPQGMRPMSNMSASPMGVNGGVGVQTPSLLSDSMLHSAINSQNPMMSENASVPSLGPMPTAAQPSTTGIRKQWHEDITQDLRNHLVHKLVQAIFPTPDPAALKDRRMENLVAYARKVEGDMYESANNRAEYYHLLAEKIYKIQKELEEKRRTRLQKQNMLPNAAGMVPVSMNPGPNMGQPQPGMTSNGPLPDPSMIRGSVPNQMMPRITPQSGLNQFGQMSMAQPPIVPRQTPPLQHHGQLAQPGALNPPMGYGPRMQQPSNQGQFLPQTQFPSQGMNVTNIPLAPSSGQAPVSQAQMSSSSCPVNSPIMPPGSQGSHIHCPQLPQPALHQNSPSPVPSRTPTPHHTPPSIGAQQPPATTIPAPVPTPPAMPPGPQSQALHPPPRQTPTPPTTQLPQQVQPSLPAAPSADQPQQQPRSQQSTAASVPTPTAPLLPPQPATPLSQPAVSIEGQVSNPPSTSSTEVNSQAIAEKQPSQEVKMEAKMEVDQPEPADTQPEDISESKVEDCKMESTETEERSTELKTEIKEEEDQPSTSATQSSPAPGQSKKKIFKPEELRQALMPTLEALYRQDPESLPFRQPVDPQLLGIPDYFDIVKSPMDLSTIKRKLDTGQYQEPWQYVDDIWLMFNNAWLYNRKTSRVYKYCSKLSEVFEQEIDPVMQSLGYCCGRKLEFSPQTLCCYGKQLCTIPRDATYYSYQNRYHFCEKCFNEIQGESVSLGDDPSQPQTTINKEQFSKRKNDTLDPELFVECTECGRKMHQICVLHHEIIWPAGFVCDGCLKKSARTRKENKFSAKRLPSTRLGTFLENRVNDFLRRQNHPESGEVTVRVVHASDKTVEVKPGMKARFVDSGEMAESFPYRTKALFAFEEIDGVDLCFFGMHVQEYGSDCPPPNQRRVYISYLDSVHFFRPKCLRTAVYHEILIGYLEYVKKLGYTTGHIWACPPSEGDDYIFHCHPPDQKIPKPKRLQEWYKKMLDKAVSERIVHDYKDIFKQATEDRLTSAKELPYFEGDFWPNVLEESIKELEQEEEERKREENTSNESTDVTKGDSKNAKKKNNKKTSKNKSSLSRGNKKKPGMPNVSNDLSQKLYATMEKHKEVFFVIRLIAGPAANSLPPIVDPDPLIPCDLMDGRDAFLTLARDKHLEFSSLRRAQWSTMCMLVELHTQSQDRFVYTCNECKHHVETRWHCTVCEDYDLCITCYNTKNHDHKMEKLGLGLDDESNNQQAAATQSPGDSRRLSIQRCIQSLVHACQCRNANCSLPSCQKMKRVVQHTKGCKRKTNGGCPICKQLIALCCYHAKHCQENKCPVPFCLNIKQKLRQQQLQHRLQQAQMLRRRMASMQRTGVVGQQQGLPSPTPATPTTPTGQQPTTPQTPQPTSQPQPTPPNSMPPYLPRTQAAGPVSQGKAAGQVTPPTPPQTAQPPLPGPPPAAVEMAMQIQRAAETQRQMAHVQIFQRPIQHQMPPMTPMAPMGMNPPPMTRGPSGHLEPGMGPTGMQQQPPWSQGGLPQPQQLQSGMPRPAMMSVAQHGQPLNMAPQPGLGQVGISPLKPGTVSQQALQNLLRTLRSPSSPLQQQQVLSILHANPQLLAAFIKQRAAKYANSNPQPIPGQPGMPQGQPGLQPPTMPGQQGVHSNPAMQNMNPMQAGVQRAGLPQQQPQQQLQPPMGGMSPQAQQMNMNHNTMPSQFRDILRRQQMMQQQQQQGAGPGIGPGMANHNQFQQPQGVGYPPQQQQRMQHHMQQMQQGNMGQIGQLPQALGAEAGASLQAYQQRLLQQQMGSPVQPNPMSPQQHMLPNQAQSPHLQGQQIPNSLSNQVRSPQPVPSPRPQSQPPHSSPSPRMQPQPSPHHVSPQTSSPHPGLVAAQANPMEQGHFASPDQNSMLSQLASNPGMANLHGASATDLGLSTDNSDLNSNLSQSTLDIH", "experiment": "Inhibitory activity on histone acetylase p300 (radioisotope FlashPlate)", "type": "biochemical", "conditions": "enzyme 0.2 nM, peptide substrate 600 nM, [3H]-Ac-CoA 250 nM; read-out: IC50 against P300", "source_text": "Using the radioisotope FlashPlate technology, the half inhibitory concentration (IC50) of the compound according to the present invention was detected against histone acetylase p300 (purchased from BPS). […] Under the catalysis of histone acetylase p300, [3H]—Ac group in the isotope-labeled [3H]-Ac-CoA was transferred to the biotinylated histone polypeptide substrate (purchased from GL Biochem Ltd.), and then the biotinylated histone peptide substrate bound to the streptavidin on the FlashPlate board, so that the isotope was close enough to the FlashPlate board. Thus, the radiation energy of isotope could convert the scintillation fluid coated on the FlashPlate board into photons, that was able to be detected. Detailed procedures were as follows:\n• 1× reaction buffer: 50 mM Tris-HCl, pH 7.5; 0.01% Tween-20 • Reaction stop solution: 750 μM Ac-CoA solution\nEach test compound was dissolved into 10 mM with 100% DMSO, and then each compound was diluted to the desired concentration in Echo 384-well plate. […] 200 nl of 100% DMSO was transferred into the well as the negative control.\np300 was added to 1× reaction buffer to form a 2× enzyme solution (the final concentration of enzyme being 0.2 nM).\nThe peptide substrate and [3H]-Ac-CoA were added to the 1-fold reaction buffer, to form a 2-fold substrate solution (the final concentration of the substrate being 600 nM and 250 nM, respectively).\n10 μl of 2-fold enzyme solution was added to the wells of 384-well reaction plate. […] The plate was centrifuged at 1000 rpm for 1 min and incubated at room temperature for 15 min.\n10 μl of 2-fold substrate solution was added to each well of 384-well reaction plate. The plate was centrifuged at 1000 rpm for 1 min, and then reacted at 25° C. for 60 min.\n10 μl of reaction stop solution was added to each well of 384-well reaction plate to stop the reaction. 25 μL solution was collected from each well of the test plate and transferred to Flashplate, that was placed at room temperature for 1 h. Then, Flashplate plate was washed three times with 0.1% Tween-20 solution.\n4) Reading Data with MicroBeta 2\nThe data were copied from Microbeta 2. […] The maximum value is the conversion rate of the control DMSO, and the minimum value is the conversion rate of the control without enzyme activity.\nThe data were imported into Graph Pad Prism5, and the formula “log(inhibitor) vs. response−Variable slope” was used to perform curve fitting, to obtain the half inhibitory concentration (IC50)."}, "KARPAS-422": {"system": "KARPAS-422", "experiment": "Inhibition of proliferation of KARPAS-422 cells", "type": "cell-based", "conditions": "Homo sapiens; Lymphoma cell line KARPAS-422; read-out: IC50 against KARPAS-422", "description": "(§1) 1) CWR22RV1 cells were subcultured in cell culture medium, and the cells in good growth condition were seeded in a 96-well plate, 80 μL for each well, and the cell number in each well was 1500. The plate was incubated overnight in a 37° C., 5% CO2 cell incubator. 2) The drug was prepared as 30 mM stock solution with dimethyl sulfoxide (DMSO). Prior to use, the stock solution was diluted 3 times with DMSO, and then further diluted as 3-fold gradient to obtain 9 concentration gradients. Then, each concentration of compound was diluted 200 times with the culture solution (ensuring that the DMSO concentration in the culture system was 0.1%), and two replicate wells were set for each concentration. 20 μL of diluted compound solution was added to the cell culture well (with final concentrations of 10 μM, 3.3 μM. 1.1 μM . . . ), and the plate was gently shaken to mix. In addition, 3 negative control wells containing only cells and 3 blank control wells containing only culture medium were included (6 wells were each added 20 μL DMSO diluted 200 times with culture medium). 2. Result detection: (1) After culturing for 6 days, 10 μL CCK-8 was added to each well, and the plate was continually cultured in a 37° C., 5% CO2 cell incubator for 2.5 h. (2) The absorbance (OD value) was detected at 450 nm using a multifunctional microplate reader. (3) The data were analyzed by Dose-response-inhibition equation in the software GraphPad Prism6, and the IC50 value was obtained.\n(§2) Using the same method as Experimental example 2, CWR22RV1 cells were replaced with tumor cells in Table 3, and the IC50 (nM) of the compound according to the present invention against the activity of these tumor cells was tested and calculated."}, "BT-474": {"system": "BT-474", "experiment": "Inhibition of proliferation of BT-474 cells", "type": "cell-based", "conditions": "Homo sapiens; Breast cancer cell line BT-474; read-out: IC50 against BT-474", "description": "as §1, §2"}, "MM.1R": {"system": "MM.1R", "experiment": "Inhibition of proliferation of MM.1R cells", "type": "cell-based", "conditions": "Lymphoma cell line MM.1R; read-out: IC50 against MM.1R", "description": "as §1, §2"}, "EVSA-T": {"system": "EVSA-T", "experiment": "Inhibition of proliferation of EVSA-T cells", "type": "cell-based", "conditions": "Homo sapiens; Breast cancer cell line EVSA-T; read-out: IC50 against EVSA-T", "description": "as §1, §2"}, "VCAP": {"system": "VCAP", "experiment": "Inhibition of proliferation of VCAP cells", "type": "cell-based", "conditions": "Homo sapiens; Prostate cancer cell line VCAP; read-out: IC50 against VCAP", "description": "as §1, §2"}, "MAVER-1": {"system": "MAVER-1", "experiment": "Inhibition of proliferation of MAVER-1 cells", "type": "cell-based", "conditions": "Homo sapiens, Maver1; Lymphoma cell line MAVER-1; read-out: IC50 against MAVER-1", "description": "as §1, §2"}, "ATN-1": {"system": "ATN-1", "experiment": "Inhibition of proliferation of ATN-1 cells", "type": "cell-based", "conditions": "Homo sapiens; Leukemia cell line ATN-1; read-out: IC50 against ATN-1", "description": "as §1, §2"}, "HEL": {"system": "HEL", "experiment": "Inhibition of proliferation of HEL cells", "type": "cell-based", "conditions": "Homo sapiens; Leukemia cell line HEL; read-out: IC50 against HEL", "description": "as §1, §2"}, "MCF-7": {"system": "MCF-7", "experiment": "Inhibition of proliferation of MCF-7 cells", "type": "cell-based", "conditions": "Homo sapiens, MCF7; Breast cancer cell line MCF-7; read-out: IC50 against MCF-7", "description": "as §1, §2"}, "KMS-20": {"system": "KMS-20", "experiment": "Inhibition of proliferation of KMS-20 cells", "type": "cell-based", "conditions": "Multiple myeloma cell line KMS-20; read-out: IC50 against KMS-20", "description": "as §1, §2"}, "RL": {"system": "RL", "experiment": "Inhibition of proliferation of RL cells", "type": "cell-based", "conditions": "Homo sapiens; Lymphoma cell line RL; read-out: IC50 against RL", "description": "as §1, §2"}, "DU4475": {"system": "DU4475", "experiment": "Inhibition of proliferation of DU4475 cells", "type": "cell-based", "conditions": "Homo sapiens, DU-4475; Breast cancer cell line DU4475; read-out: IC50 against DU4475", "description": "as §1, §2"}, "MOLT-4": {"system": "MOLT-4", "experiment": "Inhibition of proliferation of MOLT-4 cells", "type": "cell-based", "conditions": "Homo sapiens; Leukemia cell line MOLT-4; read-out: IC50 against MOLT-4", "description": "as §1, §2"}, "MM.1S": {"system": "MM.1S", "experiment": "Inhibition of proliferation of MM.1S cells", "type": "cell-based", "conditions": "Homo sapiens, MM1.S; Multiple myeloma cell line MM.1S; read-out: IC50 against MM.1S", "description": "as §1, §2"}, "Z-138": {"system": "Z-138", "experiment": "Inhibition of proliferation of Z-138 cells", "type": "cell-based", "conditions": "Homo sapiens; Lymphoma cell line Z-138; read-out: IC50 against Z-138", "description": "as §1, §2"}}, "data": [{"smiles": "CNC(=O)Nc1cc2c(cc1F)[C@@]1(CC2)OC(=O)N(CC(=O)N2[C@@H](C)CC[C@H]2c2ccc(F)c(F)c2)C1=O", "note": "[Example 389, 1-((R)-3′-(2-((2S,5S)-2-(3,4-difluorophenyl)-5-methylpyrrolidin-1-yl)-2-oxoethyl)-6-fluoro-2′,4′-dioxo-2,3-dihydrospiro[indene-1,5′-oxazolidine]-5-yl)-3-methylurea]", "values": [{"measurement": "IC50", "setting": "histone acetylase p300", "result": 1.9, "unit": "nM"}, {"measurement": "IC50", "setting": "KARPAS-422", "result": "≤ 500", "unit": "nM"}, {"measurement": "IC50", "setting": "BT-474", "result": "≤ 500", "unit": "nM"}, {"measurement": "IC50", "setting": "MM.1R", "result": "≤ 500", "unit": "nM"}, {"measurement": "IC50", "setting": "EVSA-T", "result": "500 to 2000", "unit": "nM"}, {"measurement": "IC50", "setting": "VCAP", "result": "≤ 500", "unit": "nM"}, {"measurement": "IC50", "setting": "MAVER-1", "result": "≤ 500", "unit": "nM"}, {"measurement": "IC50", "setting": "ATN-1", "result": "≤ 500", "unit": "nM"}, {"measurement": "IC50", "setting": "HEL", "result": "≤ 500", "unit": "nM"}, {"measurement": "IC50", "setting": "MCF-7", "result": "≤ 500", "unit": "nM"}, {"measurement": "IC50", "setting": "KMS-20", "result": "≤ 500", "unit": "nM"}, {"measurement": "IC50", "setting": "RL", "result": "≤ 500", "unit": "nM"}, {"measurement": "IC50", "setting": "DU4475", "result": "500 to 2000", "unit": "nM"}, {"measurement": "IC50", "setting": "MOLT-4", "result": "≤ 500", "unit": "nM"}, {"measurement": "IC50", "setting": "MM.1S", "result": "500 to 2000", "unit": "nM"}, {"measurement": "IC50", "setting": "Z-138", "result": "≤ 500", "unit": "nM"}]}, {"smiles": "CNC(=O)Nc1ccc2c(c1)CC[C@@]21OC(=O)N(CC(=O)N2[C@@H](C)CC[C@H]2c2ccc(F)c(F)c2)C1=O", "note": "[Example 201]", "values": [{"measurement": "IC50", "setting": "histone acetylase p300", "result": 1.6, "unit": "nM"}, {"measurement": "IC50", "setting": "KARPAS-422", "result": "≤ 500", "unit": "nM"}, {"measurement": "IC50", "setting": "BT-474", "result": "≤ 500", "unit": "nM"}, {"measurement": "IC50", "setting": "MM.1R", "result": "≤ 500", "unit": "nM"}, {"measurement": "IC50", "setting": "EVSA-T", "result": "500 to 2000", "unit": "nM"}, {"measurement": "IC50", "setting": "VCAP", "result": "≤ 500", "unit": "nM"}, {"measurement": "IC50", "setting": "MAVER-1", "result": "≤ 500", "unit": "nM"}, {"measurement": "IC50", "setting": "ATN-1", "result": "≤ 500", "unit": "nM"}, {"measurement": "IC50", "setting": "HEL", "result": "500 to 2000", "unit": "nM"}, {"measurement": "IC50", "setting": "MCF-7", "result": "≤ 500", "unit": "nM"}, {"measurement": "IC50", "setting": "KMS-20", "result": "≤ 500", "unit": "nM"}, {"measurement": "IC50", "setting": "RL", "result": "≤ 500", "unit": "nM"}, {"measurement": "IC50", "setting": "DU4475", "result": "500 to 2000", "unit": "nM"}, {"measurement": "IC50", "setting": "MOLT-4", "result": "≤ 500", "unit": "nM"}, {"measurement": "IC50", "setting": "MM.1S", "result": "500 to 2000", "unit": "nM"}, {"measurement": "IC50", "setting": "Z-138", "result": "≤ 500", "unit": "nM"}]}, {"smiles": "CNC(=O)Nc1ccc2c(c1)CC[C@@]21OC(=O)N(CC(=O)N2C(C)CC[C@H]2c2cc(F)c(F)c(F)c2)C1=O", "note": "(stereo in doubt) [Example 205, 1-((R)-3′-(2-((2S,5R)-2-(3,4,5-trifluorophenyl)-5-methylpyrrolidin-1-yl)-2-oxoethyl)-2′,4′-dioxo-2,3-dihydrospiro[indene-1,5′-oxazolidine]-5-yl)-3-methylurea]", "values": [{"measurement": "IC50", "setting": "histone acetylase p300", "result": 1.6, "unit": "nM"}, {"measurement": "IC50", "setting": "KARPAS-422", "result": "≤ 500", "unit": "nM"}, {"measurement": "IC50", "setting": "BT-474", "result": "≤ 500", "unit": "nM"}, {"measurement": "IC50", "setting": "MM.1R", "result": "≤ 500", "unit": "nM"}, {"measurement": "IC50", "setting": "EVSA-T", "result": "500 to 2000", "unit": "nM"}, {"measurement": "IC50", "setting": "VCAP", "result": "≤ 500", "unit": "nM"}, {"measurement": "IC50", "setting": "MAVER-1", "result": "≤ 500", "unit": "nM"}, {"measurement": "IC50", "setting": "ATN-1", "result": "≤ 500", "unit": "nM"}, {"measurement": "IC50", "setting": "HEL", "result": "500 to 2000", "unit": "nM"}, {"measurement": "IC50", "setting": "MCF-7", "result": "≤ 500", "unit": "nM"}, {"measurement": "IC50", "setting": "KMS-20", "result": "≤ 500", "unit": "nM"}, {"measurement": "IC50", "setting": "RL", "result": "≤ 500", "unit": "nM"}, {"measurement": "IC50", "setting": "DU4475", "result": "500 to 2000", "unit": "nM"}, {"measurement": "IC50", "setting": "MOLT-4", "result": "≤ 500", "unit": "nM"}, {"measurement": "IC50", "setting": "MM.1S", "result": "500 to 2000", "unit": "nM"}, {"measurement": "IC50", "setting": "Z-138", "result": "≤ 500", "unit": "nM"}]}]}
